Key:
[1] = Half life in Wistar rat at 4 mg/kg, iv; type: ADME, organism-based; conditions: in vivo
[2] = Drug excretion in Wistar rat urine at 4 mg/kg, iv measured after 72 hrs; type: ADME, organism-based; conditions: read-out: Drug excretion
[3] = Clearance in Wistar rat at 4 mg/kg, iv; type: ADME, organism-based; conditions: in vivo
[4] = tested on: NCI-H460; test: Antitumor activity against human NCI-H460 cells xenografted in nude mouse assessed as inhibition of tumor weight at 3 mg/kg, iv administered once in every 2 days for 14 consecutive days cotreated with 25 mg/kg gefitinib once daily for 14 consecutive days relative to control; type: functional
[5] = Drug uptake in Wistar rat lungs at 6 mg/kg, iv measured after 4 hrs; type: ADME, organism-based, Lung; conditions: in vivo
[6] = Drug excretion in Wistar rat feces at 4 mg/kg, iv measured after 8 hrs; type: ADME, organism-based; conditions: faeces, read-out: Drug excretion
[7] = Stability in rat plasma at 1 uM after 60 mins by LC-MS/MS analysis; type: ADME, cell-free; conditions: read-out: Stability
[8] = Stability in rat plasma at 1 uM after 90 mins by LC-MS/MS analysis; type: ADME, cell-free; conditions: read-out: Stability
[9] = Half life in Wistar rat at 8 mg/kg, iv; type: ADME, organism-based; conditions: in vivo
[10] = Drug uptake in Wistar rat kidney at 6 mg/kg, iv measured after 1 hr; type: ADME, organism-based; conditions: in vivo
[11] = Drug excretion in Wistar rat urine at 4 mg/kg, iv measured after 24 hrs; type: ADME, organism-based; conditions: read-out: Drug excretion
[12] = Protein binding in Beagle dog plasma at 2 uM after 4 hrs by LC-MS/MS analysis; type: ADME, cell-free, Canis lupus familiaris; conditions: read-out: PPB (converted)
[13] = target: Cytochrome P450 2D6 (Homo sapiens, UniProt P10635); test: Inhibition of CYP2D6 in human liver microsomes preincubated for 10 mins followed by NADPH addition measured after 10 mins by LC-MS/MS analysis; type: ADME
[14] = Drug uptake in Wistar rat heart at 6 mg/kg, iv measured after 12 hrs; type: ADME, organism-based; conditions: in vivo
[15] = Drug uptake in Wistar rat brain at 6 mg/kg, iv measured after 12 hrs; type: ADME, organism-based; conditions: in vivo
[16] = Drug excretion in Wistar rat feces at 4 mg/kg, iv measured after 48 hrs; type: ADME, organism-based; conditions: faeces, read-out: Drug excretion
[17] = Drug uptake in Wistar rat brain at 6 mg/kg, iv measured after 4 hrs; type: ADME, organism-based; conditions: in vivo
[18] = Stability in rat liver microsomes at 50 uM after 150 mins in presence of NADPH by LC-MS/MS analysis; type: ADME, microsome; conditions: read-out: Stability
[19] = Stability in rat liver microsomes at 50 uM after 90 mins in presence of NADPH by LC-MS/MS analysis; type: ADME, microsome; conditions: read-out: Stability
[20] = tested on: NCI-H460; test: Antitumor activity against human NCI-H460 cells xenografted in nude mouse assessed as inhibition of tumor weight at 3 mg/kg, iv administered once in every 2 days for 14 consecutive days relative to control; type: functional; conditions: 48 h
[21] = Stability in rat plasma at 1 uM after 120 mins by LC-MS/MS analysis; type: ADME, cell-free; conditions: read-out: Stability
[22] = Stability in rat plasma at 1 uM after 40 mins by LC-MS/MS analysis; type: ADME, cell-free; conditions: read-out: Stability
[23] = tested on: Mus musculus; test: Toxicity in nude mouse xenografted with human NCI-H460 cells assessed as body weight at 6 mg/kg, iv administered once in every 2 days for 14 consecutive days (reference value: 20.6 +/- 1.5 g); type: organism-based; conditions: in vivo, 48 h
[24] = tested on: Mus musculus; test: Toxicity in nude mouse xenografted with human NCI-H460 cells assessed as body weight at 3 mg/kg, iv administered once in every 2 days for 14 consecutive days (reference value: 20.6 +/- 1.5 g); type: organism-based; conditions: in vivo, 48 h
[25] = Drug uptake in Wistar rat small intestine at 6 mg/kg, iv measured after 1 hr; type: ADME, organism-based; conditions: in vivo
[26] = Half life in rat liver microsomes at 50 uM in presence of NADPH by LC-MS/MS analysis; type: ADME, microsome
[27] = Drug uptake in Wistar rat brain at 6 mg/kg, iv measured after 8 hrs; type: ADME, organism-based; conditions: in vivo
[28] = Drug excretion in Wistar rat feces at 4 mg/kg, iv measured after 4 hrs; type: ADME, organism-based; conditions: faeces, read-out: Drug excretion
[29] = Drug uptake in Wistar rat pancreas at 6 mg/kg, iv measured after 0.5 hrs; type: ADME, organism-based; conditions: in vivo
[30] = tested on: NCI-H460; test: Antitumor activity against human NCI-H460 cells xenografted in nude mouse assessed as inhibition of tumor weight at 9 mg/kg, iv administered once in every 2 days for 14 consecutive days relative to control; type: functional; conditions: 48 h
[31] = tested on: Mus musculus; test: Toxicity in nude mouse xenografted with human NCI-H460 cells assessed as death at 3 to 6 mg/kg, iv administered once in every 2 days for 14 consecutive days cotreated with 25 to 50 mg/kg gefitinib once daily for 14 consecutive days; type: organism-based; conditions: in vivo, 48 h
[32] = Drug uptake in Wistar rat small intestine at 6 mg/kg, iv measured after 8 hrs; type: ADME, organism-based; conditions: in vivo

Cytochrome P450 2D6, sequence (P10635 whole entry): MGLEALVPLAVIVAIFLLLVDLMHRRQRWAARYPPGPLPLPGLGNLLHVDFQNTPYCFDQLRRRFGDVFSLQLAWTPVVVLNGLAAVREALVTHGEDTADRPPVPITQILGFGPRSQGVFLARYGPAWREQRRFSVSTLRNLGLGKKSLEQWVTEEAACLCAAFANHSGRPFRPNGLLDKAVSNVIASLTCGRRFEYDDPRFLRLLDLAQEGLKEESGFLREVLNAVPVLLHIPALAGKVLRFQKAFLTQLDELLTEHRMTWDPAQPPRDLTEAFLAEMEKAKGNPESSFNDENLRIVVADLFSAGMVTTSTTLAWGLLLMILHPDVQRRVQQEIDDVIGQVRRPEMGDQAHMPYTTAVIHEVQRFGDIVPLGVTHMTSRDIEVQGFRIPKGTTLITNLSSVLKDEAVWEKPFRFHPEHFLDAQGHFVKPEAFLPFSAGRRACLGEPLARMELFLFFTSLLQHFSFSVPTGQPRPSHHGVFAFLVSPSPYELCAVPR

SMILES: [2H]/C(c1nc[nH]c1C(C)(C)C)=c1/[nH]c(=O)/c(=C/c2ccccc2)[nH]c1=O
- half-life [1]: 2.27 h
- dose excreted at 72 h [2]: 0.5%
- clearance [3]: 71.4 mL/min/kg
- inhibition (INH) [4]: 53.3%
- Drug uptake [5]: 49038.9 ng/mL/g
- dose excreted at 8 h [6]: 0.11%
- remaining at 1 h, 1 µM [7]: 94.3%
- remaining at 1.5 h, 1 µM [8]: 99.3%
- half-life [9]: 2.29 h
- Drug uptake [10]: 6768.5 ng/mL/g
- dose excreted at 24 h [11]: 0.2%
- fraction unbound at 4 h, 2 µM [12]: 0.027
- IC50 [13]: 18.4 µM
- Drug uptake [14]: 54.7 ng/mL/g
- Drug uptake [15]: 83 ng/mL/g
- dose excreted at 48 h [16]: 6.1%
- Drug uptake [17]: 166.5 ng/mL/g
- remaining at 2.5 h, 50 µM [18]: 32.9%
- remaining at 1.5 h, 50 µM [19]: 39.9%
- inhibition in vivo at 3 mg/kg [20]: 43%
- remaining at 2 h, 1 µM [21]: 101%
- remaining at 40 min, 1 µM [22]: 95.5%
- Activity [23]: 21.1 g
- Activity [24]: 20.5 g
- Drug uptake [25]: 1128.6 ng/mL/g
- t1/2 [26]: 1.415 h
- Drug uptake [27]: 144.8 ng/mL/g
- dose excreted at 4 h [28]: 0.11%
- Drug uptake [29]: 7096.2 ng/mL/g
- inhibition in vivo at 9 mg/kg [30]: 58.7%
- Activity [31]: Non-Toxic
- Drug uptake [32]: 160 ng/mL/g

Source: ChEMBL document CHEMBL4229536, “In vitro and in vivo pharmacokinetic and pharmacodynamic study of MBRI-001, a deuterium-substituted plinabulin derivative as a potent anti-cancer agent” (Bioorg Med Chem, 2018)
